Source: ChEMBL document CHEMBL1149802, “Chemiluminescent high-throughput microassay applied to imidazo[2,1-b]thiazole derivatives as potential acetylcholinesterase and butyrylcholinesterase inhibitors” (Eur J Med Chem, 2008)

Target: Acetylcholinesterase (Electrophorus electricus, UniProt O42275)
Experiment: Inhibition of electric eel acetylcholine esterase type V-S in presence of acetylcholine substrate by chemiluminescent assay

Chain of Acetylcholinesterase (O42275 whole entry): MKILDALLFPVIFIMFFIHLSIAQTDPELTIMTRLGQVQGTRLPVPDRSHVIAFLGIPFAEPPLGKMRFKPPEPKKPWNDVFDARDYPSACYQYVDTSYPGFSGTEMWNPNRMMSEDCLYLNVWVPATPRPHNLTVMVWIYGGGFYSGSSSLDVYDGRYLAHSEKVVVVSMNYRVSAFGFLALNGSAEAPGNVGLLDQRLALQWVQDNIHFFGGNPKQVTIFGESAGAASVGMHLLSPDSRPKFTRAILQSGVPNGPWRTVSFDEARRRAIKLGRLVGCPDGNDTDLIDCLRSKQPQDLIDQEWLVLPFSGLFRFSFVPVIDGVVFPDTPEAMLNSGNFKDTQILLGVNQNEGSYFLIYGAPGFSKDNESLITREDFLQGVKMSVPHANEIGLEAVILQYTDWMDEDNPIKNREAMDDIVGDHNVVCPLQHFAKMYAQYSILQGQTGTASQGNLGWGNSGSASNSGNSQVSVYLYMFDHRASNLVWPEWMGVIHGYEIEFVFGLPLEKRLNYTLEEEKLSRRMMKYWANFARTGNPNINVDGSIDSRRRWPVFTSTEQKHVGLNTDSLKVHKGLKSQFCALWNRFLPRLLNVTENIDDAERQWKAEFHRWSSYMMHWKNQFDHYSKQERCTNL

O=C(c1ccccc1)N1CCN(/N=C/c2c(Cl)nc3sccn23)C1=O
IC50: 4.2 µM

CC(=O)N1CCN(/N=C/c2c(Cl)nc3sccn23)C1=O
IC50: 60 µM

CC(=O)N1CCN(/N=C/c2c(C)nc3sccn23)C1=O
IC50: 35 µM
